Usually IC50 stands for the point on the concentration scale where inhibition reaches its midpoint.

1 compound from PubChem BioAssay AID1671212 can be followed below.

The assay has as its target Casein kinase I isoform gamma-3 (Homo sapiens) (UniProt Q9Y6M4). Kind of assay: PubChem AID 1671212. Particulars: Z'-LYTE FRET peptide phosphorylation, recombinant CSNK1G3.

Chain of Casein kinase I isoform gamma-3 (Homo sapiens) (Q9Y6M4 whole entry, looked up, canonical isoform): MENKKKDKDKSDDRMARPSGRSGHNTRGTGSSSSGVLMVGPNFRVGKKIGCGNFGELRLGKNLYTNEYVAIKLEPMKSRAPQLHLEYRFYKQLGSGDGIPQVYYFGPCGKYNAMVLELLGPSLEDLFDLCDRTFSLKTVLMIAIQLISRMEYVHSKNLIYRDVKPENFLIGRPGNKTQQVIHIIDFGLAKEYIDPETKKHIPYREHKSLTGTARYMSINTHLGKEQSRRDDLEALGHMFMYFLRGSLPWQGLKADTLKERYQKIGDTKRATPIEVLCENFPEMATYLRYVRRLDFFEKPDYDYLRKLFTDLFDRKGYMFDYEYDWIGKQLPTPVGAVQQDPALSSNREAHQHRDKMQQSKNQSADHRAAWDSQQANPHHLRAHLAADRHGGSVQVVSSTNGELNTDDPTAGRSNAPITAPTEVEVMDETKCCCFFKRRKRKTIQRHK

`Brc1c(Br)c(Br)c2n[nH]nc2c1Br`: the IC50 was 69.9 µM.
